Data from US6552077B2, “Albumin-binding compounds that prevent nonenzymatic glycation and that may be used for treatment of glycation-related pathologies” (Exocell, Inc., priority 1996, dated 2003).
Structures can show the parent of a compound that is named as a salt.

What was measured:
[1] = biological target: T1, Human albumin (Homo sapiens, UniProt P02768); assay: Anti-glycation activity of 2-(phenylamino)phenylacetic acids (glycated albumin ELISA); type: biochemical; conditions: for IC50: human albumin 10 mg/ml, 0-50 mM glucose, 48-144 hours, 37° C., read-out: Glycation Inhibition IC50; for Antiglycation IC50 versus COX Inhibition IC50 (ratio): ratio of glycation IC50 to cyclo-oxygenase IC50
Procedure: After dialysis to remove free glucose and compound, the amount of glycated albumin formed was determined by enzyme-linked immunosorbent assay using the monoclonal antibodies known to specifically react with Amadori-glucose adducts in glycated albumin and to be unreactive with the nonglycated protein. The presence of glucose in the incubations promotes the nonenzymatic glycation of albumin, and the performance of paired incubations allows comparison of the amount of glycated albumin formed under control (0 glucose), stimulated (25-50 mM glucose), and inhibited (compound plus glucose) conditions.

[2] = biological target: T2, cyclo-oxygenase (Bos taurus, UniProt O62664); assay: Cyclo-oxygenase inhibition, conversion of arachidonic acid to prostaglandin E2 in bovine seminal vesicle homogenates; type: biochemical; conditions: arachidonic acid to prostaglandin E2, 1-30 minutes, read-out: COX Inhibition IC50
T2 construct: from tissue; host or cells: bovine seminal vesicles (cellular homogenate)
T2 sequence (O62664 25-600): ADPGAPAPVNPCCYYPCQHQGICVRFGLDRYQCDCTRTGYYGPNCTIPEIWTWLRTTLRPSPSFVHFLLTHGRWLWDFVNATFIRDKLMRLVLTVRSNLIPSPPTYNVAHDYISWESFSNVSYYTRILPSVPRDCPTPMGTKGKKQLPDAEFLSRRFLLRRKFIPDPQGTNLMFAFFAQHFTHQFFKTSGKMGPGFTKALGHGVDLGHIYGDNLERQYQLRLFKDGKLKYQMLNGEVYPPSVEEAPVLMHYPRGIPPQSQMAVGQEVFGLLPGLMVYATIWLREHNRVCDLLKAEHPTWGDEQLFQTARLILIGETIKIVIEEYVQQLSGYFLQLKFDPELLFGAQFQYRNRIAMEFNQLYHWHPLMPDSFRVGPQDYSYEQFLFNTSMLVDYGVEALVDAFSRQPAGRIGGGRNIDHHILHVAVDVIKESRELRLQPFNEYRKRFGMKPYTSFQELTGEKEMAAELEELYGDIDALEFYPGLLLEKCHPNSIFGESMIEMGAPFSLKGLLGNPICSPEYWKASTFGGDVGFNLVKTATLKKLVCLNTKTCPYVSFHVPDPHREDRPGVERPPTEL
Procedure: Cellular homogenates of bovine seminal vesicles were incubated with arachidonic acid and the production of prostaglandins was monitored.

[3] = biological target: T3, glycated albumin (Mus musculus, UniProt P07724); assay: Prevention of albumin glycation in vivo, plasma glycated albumin by ELISA; conditions: mice; for Glycated Albumin, Percent change: post vs pre-treatment; for Glycated Albumin, Post-treatment: four hours after last dosing; for Glycated Albumin, Pre-treatment: before treatment
T3 construct: from tissue; host or cells: mouse plasma (in vivo dosing)
Description: Blood was taken before the initiation of treatment and four hours after the last dosing at the conclusion of the treatment.

[4] = system: Mice; assay: Urine protein excretion after 8 weeks of treatment; type: in vivo
Procedure: Mice were treated for 8 weeks with 10 mg/kg/day of 2-(3-chlorophenylamino) phenylacetic acid in divided doses. Urine samples were obtained at the initiation and termination of treatment for examination of protein excretion, which measures vascular dysfunction that is associated with glycation-related pathology As shown below, the reduction in glycated albumin was associated with a reduction in urine protein excretion.

[5] = biological target: T1, Human albumin; assay: Prevention of albumin glycation at physiologically significant sites (ELISA with anti-glycated albumin monoclonal antibody); type: biochemical; conditions: for IC50: human albumin 10 mg/ml, 40 mM glucose, 4 days, compound 1-1000 μM
Procedure: The performance of paired incubations allowed comparison of the amount of glycated albumin formed under control (0 mM glucose), stimulated (40 mM glucose) and inhibited (test compound plus glucose) conditions.

[6] = 5 mg/kg/day intraperitoneal for 5 days
[7] = 5 mg/kg/day intraperitoneal in divided doses for 5 days
[8] = 10 mg/kg/day intraperitoneal for 5 days
[9] = 10 mg/kg/day intraperitoneal in divided doses for 5 days

T3 sequence (P07724 25-608): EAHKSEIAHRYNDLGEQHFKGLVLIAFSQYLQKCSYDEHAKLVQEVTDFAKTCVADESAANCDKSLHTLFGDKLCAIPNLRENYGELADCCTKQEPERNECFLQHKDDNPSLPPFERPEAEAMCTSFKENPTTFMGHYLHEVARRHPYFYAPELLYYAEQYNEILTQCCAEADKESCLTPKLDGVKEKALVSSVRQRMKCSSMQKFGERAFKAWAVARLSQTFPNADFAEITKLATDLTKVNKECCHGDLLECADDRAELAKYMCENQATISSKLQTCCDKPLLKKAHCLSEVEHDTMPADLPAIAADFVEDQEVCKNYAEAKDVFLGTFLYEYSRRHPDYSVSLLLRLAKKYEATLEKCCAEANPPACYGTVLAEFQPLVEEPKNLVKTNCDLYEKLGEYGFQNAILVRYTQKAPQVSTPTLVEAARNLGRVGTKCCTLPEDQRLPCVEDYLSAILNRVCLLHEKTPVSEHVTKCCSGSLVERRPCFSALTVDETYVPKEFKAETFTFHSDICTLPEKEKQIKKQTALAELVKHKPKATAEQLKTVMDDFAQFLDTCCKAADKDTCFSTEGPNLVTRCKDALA
T1 sequence (P02768 25-609): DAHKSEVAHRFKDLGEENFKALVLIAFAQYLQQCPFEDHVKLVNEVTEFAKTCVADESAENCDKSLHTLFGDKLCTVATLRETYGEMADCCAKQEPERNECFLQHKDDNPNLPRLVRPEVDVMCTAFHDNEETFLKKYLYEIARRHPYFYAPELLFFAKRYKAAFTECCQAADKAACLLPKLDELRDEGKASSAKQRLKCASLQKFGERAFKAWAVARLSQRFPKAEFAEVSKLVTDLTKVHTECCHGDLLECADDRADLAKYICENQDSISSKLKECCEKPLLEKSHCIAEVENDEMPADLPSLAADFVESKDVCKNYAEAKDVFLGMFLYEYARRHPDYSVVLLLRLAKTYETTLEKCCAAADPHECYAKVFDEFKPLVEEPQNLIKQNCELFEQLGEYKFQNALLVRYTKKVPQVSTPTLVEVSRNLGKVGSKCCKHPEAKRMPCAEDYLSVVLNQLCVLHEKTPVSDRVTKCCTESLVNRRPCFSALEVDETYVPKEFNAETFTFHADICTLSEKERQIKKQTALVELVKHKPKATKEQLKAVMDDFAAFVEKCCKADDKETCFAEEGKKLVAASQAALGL

## O=C(O)Cc1ccccc1Nc1cccc(Cl)c1 (as salt: salt) [Example 5, 2-[(3-chlorophenyl)amino]phenylacetic acid]
other
  melting point: 102 to 103 °C

## O=C(O)Cc1ccccc1Nc1ccccc1 [Example 3, 2-[(phenyl)amino]phenylacetic acid]
[1]
  IC50: 155 µM
  Antiglycation IC50 versus COX Inhibition IC50 (ratio): 0.54
[2]
  IC50: 288 µM

## O=C(O)Cc1ccccc1Nc1ccccc1Cl [Example 4, 2-[(2-chlorophenyl)amino]phenylacetic acid]
[1]
  IC50: 10 µM
  Antiglycation IC50 versus COX Inhibition IC50 (ratio): 0.24
[2]
  IC50: 42 µM
[3]; [6]
  Glycated Albumin, Percent change: −32.5%
[3]; [7]
  Glycated Albumin, Post-treatment: 500 µg/mL
[3]; [8]
  Glycated Albumin, Percent change: −47.7%
[3]; [9]
  Glycated Albumin, Post-treatment: 426 µg/mL
[3]; 5 mg/kg/day group
  Glycated Albumin, Pre-treatment: 741 µg/mL
[3]; 10 mg/kg/day group
  Glycated Albumin, Pre-treatment: 815 µg/mL

## O=C(O)Cc1ccccc1Nc1cccc(Cl)c1 [Example 5, 2-[(3-chlorophenyl)amino]phenylacetic acid]
[1]
  IC50: 50 µM
  Antiglycation IC50 versus COX Inhibition IC50 (ratio): 0.08
[2]
  IC50: 600 µM
[4]; after 8 weeks of 10 mg/kg/day in divided doses
  Urine protein, Termination: 2.7 μg/24 hrs
[4]; at initiation of treatment (baseline)
  Urine protein, Initiation: 7.6 μg/24 hrs
[5]; comparison among the compounds of Table 1
  ability to prevent glycation of the physiologically important sites: greatest ability to prevent glycation
[5]
  IC50: 15 µM
[3]; [6]
  Glycated Albumin, Percent change: −18.4%
[3]; [7]
  Glycated Albumin, Post-treatment: 697 µg/mL
[3]; [8]
  Glycated Albumin, Percent change: −45.6%
[3]; [9]
  Glycated Albumin, Post-treatment: 352 µg/mL
[3]; 5 mg/kg/day group
  Glycated Albumin, Pre-treatment: 854 µg/mL
[3]; 10 mg/kg/day group
  Glycated Albumin, Pre-treatment: 647 µg/mL

## O=C(O)Cc1ccccc1Nc1ccc(Cl)cc1 [Example 6, 2-[(4-chlorophenyl)amino]phenylacetic acid]
[1]
  IC50: 11 µM
  Antiglycation IC50 versus COX Inhibition IC50 (ratio): 0.11
[2]
  IC50: 98 µM

## O=C(O)Cc1ccccc1Nc1ccc(Cl)cc1Cl [Example 8, 2-[(2,4-dichlorophenyl)amino]phenylacetic acid]
[1]
  IC50: 63 µM
  Antiglycation IC50 versus COX Inhibition IC50 (ratio): 0.90
[2]
  IC50: 71 µM

## O=C(O)Cc1ccccc1Nc1ccc(Cl)c(Cl)c1 [Example 11, 2-[(3,4-dichlorophenyl)amino]phenylacetic acid]
[1]
  IC50: 2.5 µM
  Antiglycation IC50 versus COX Inhibition IC50 (ratio): 0.02
[2]
  IC50: 141 µM

## Cc1cccc(C)c1Nc1ccccc1CC(=O)O [Example 13, 2-[(2,6-dimethylphenyl)amino]phenylacetic Acid]
[1]
  IC50: 112 µM
  Antiglycation IC50 versus COX Inhibition IC50 (ratio): 19.0
[2]
  IC50: 6 µM

## CC1=C(CC(=O)O)c2cc(F)ccc2/C1=C\c1ccc([S+](C)[O-])cc1 (stereo not drawn) [[Z]-5-fluoro-2-methyl-1 [p-(methylsulfinyl)phenyl] (methylene-1H-indene-3-acetic acid, reference compound]
[5]
  IC50: 22000 µM
